Data: patent US7781483B2, “Benzopyran compound” (Nissan Chemical Industries, Ltd., priority 2004, dated 2010)
Where a name gives a salt, the structure may show the parent alone.

Tested on: Atrium
Experiment: Effects on the effective refractory period (S1-S2 extrastimulus technique, anesthetized beagles under vagal nerve stimulation)
Type: in vivo
Details: 0.3 mg/kg intravenously, determined from 5 min after administration, bilateral vagal nerve stimulation, basic cycle length 300 msec, [after]-[before] drug administration
Description: Beagles were anesthetized with pentobarbital sodium and thoracotomy was done along the median line under a respirator and the incision was made on the pericardium to expose the heart. An electrocardiogram (ECG) was recorded using bipolar electrodes attached to the surface of the right atrial free wall, right atrial auricle, and right ventricular free wall. The vagal nerves were stimulated using an electrostimulation device with Nichrome wires inserted into the vagal nerves in the neck bilaterally. The conditions for electrostimulation to the vagal nerves were set such that the RR intervals on ECG were prolonged by about 100 msec compared with those before the stimulation was started.
Atrial and ventricular effective refractory periods were determined by S1-S2 extrastimulus technique at basic cycle length of 300 msec during bilateral vagal nerve stimulation, using programmable electric stimulator. A train of 10 basic stimuli (S1) was followed by a premature extrastimulus (S2) at 2 times diastolic threshold.
For evaluation of drug effects, the atrial and ventricular effective refractory periods were determined before drug administration, then respective compound was administrated intravenously at the dose of 0.3 mg/kg, and the atrial and ventricular effective refractory periods were determined from 5 min after the administration.
The results were shown as the prolongation time on the atrial and ventricular effective refractory periods, i.e. [effective refractory period after drug administration]−[effective refractory period before drug administration] (msec).

Structure (SMILES) | Prolongation time on the effective refractory period (msec) Atrium
COc1cc2c(cc1N(C)S(C)(=O)=O)OC(C)(C)[C@H](O)[C@H]2NCCc1ccccc1 (relative stereo) [Synthesis Example 3, N-{(3R*,4S*)-3-Hydroxy-6-methoxy-2,2-dimethyl-4-[(2-phenylethyl)amino]-3,4-dihydro-2H-1-benzopyran-7-yl}-N-methylmethanesulfonamide] | 20 ms
COc1cc2c(cc1NS(C)(=O)=O)OC(C)(C)[C@H](O)[C@H]2NCCc1ccccc1 (relative stereo) [Synthesis Example 1, N-{(3R*,4S*)-3-Hydroxy-6-methoxy-2,2-dimethyl-4-[(2-phenylethyl)amino]-3,4-dihydro-2H-1-benzopyran-7-yl}methanesulfonamide] | 24 ms
CN(c1ccc2c(c1)OC(C)(C)[C@H](O)[C@H]2NCCc1ccccc1)S(C)(=O)=O (relative stereo) [Synthesis Example 12, N-{(3R*,4S*)-3-hydroxy-2,2-dimethyl-4-[(2-phenylethyl)amino]-3,4-dihydro-2H-benzopyran-7-yl}-N-methylmethanesulfonamide hydrochloride] | 28 ms
COc1cc2c(cc1NS(C)(=O)=O)OC(C)(C)[C@H](O)[C@H]2NCCC1CCCCC1 (relative stereo) [Synthesis Example 4, N-{(3R*,4S*)-4-[(2-Cyclohexylethyl)amino]-3-hydroxy-6-methoxy-2,2-dimethyl-3,4-dihydro-2H-1-benzopyran-7-yl}methanesulfonamide] | 26 ms
CC1(C)Oc2cc(NS(C)(=O)=O)ccc2[C@H](NCCc2ccccc2)[C@H]1O (relative stereo) [Synthesis Example 7, N-{(3R*,4S*)-3-Hydroxy-2,2-dimethyl-4-[(2-phenylethyl)amino]-3,4-dihydro-2H-1-benzopyran-7-yl}methanesulfonamide maleate] | 32 ms
Br.CC1(C)Oc2cc(NS(C)(=O)=O)c(O)cc2[C@H](NCCc2ccccc2)[C@H]1O (relative stereo) [Synthesis Example 2, N-{(3R*,4S*)-3,6-Dihydroxy-2,2-dimethyl-4-[(2-phenylethyl)amino]-3,4-dihydro-2H-1-benzopyran-7-yl}methanesulfonamide] | 26 ms
